Tests used:
[1] = cited from earlier work; for secretion of tears and tear proteins: Patent Literature 1
[2] = test system: dry-eye model SD (Sprague-Dawley) rat; assay: Quantity of tears by Schirmer strip in the exorbital-lacrimal-gland-removed dry-eye model (Tests 3 and 4); format: in vivo; conditions: for Incremental difference in Schirmer's test at 0.5 hours after ocular instillation / Incremental difference in Schirmer's test at 8 hours after ocular instillation: difference from vehicle-instilled group, rat dry-eye model
Protocol: A somnopentyl injection five-fold diluted with physiological saline was intraperitoneally administered to a normal male SD (Sprague-Dawley) rat by 2.5 mL/kg, and the rat was given general anesthesia, followed by keeping the anesthetized state by inhalation of about 1 to 3% isoflurane. Then, the skin on each cheek was incised to remove the exorbital lacrimal gland, followed by suturation with a Michel suture clamp. In this test, an individual wherein reduction of tears was confirmed after 13 weeks from the removal of exorbital lacrimal gland was included as the experimental animal.
Half an hour after treatment of general anesthesia, Schirmer strip (1 mm×17 mm) was inserted to conjunctival sac of the lower eyelid of a rat, and then after 1 minute of the insertion, the wet part of the Schirmer strip was measured in increments of 0.5 mm. (N=14 or 16 eyes)
The quantity of tears was measured in a similar manner to Test 3. (N=10 eyes)

[3] = test system: normal male cynomolgus monkeys; assay: Tear film break-up time (TBUT) after single ocular instillation (Tests 1 and 2); format: in vivo, cynomolgus monkey; conditions: for extension of TBUT: single ocular instillation 1% (w/v) ophthalmic solution, FIG. 2
β1 adrenergic receptors = β1 adrenergic receptors (Homo sapiens, UniProt P08588); conditions: cited from earlier work
Sequence of β1 adrenergic receptors (P08588 whole entry): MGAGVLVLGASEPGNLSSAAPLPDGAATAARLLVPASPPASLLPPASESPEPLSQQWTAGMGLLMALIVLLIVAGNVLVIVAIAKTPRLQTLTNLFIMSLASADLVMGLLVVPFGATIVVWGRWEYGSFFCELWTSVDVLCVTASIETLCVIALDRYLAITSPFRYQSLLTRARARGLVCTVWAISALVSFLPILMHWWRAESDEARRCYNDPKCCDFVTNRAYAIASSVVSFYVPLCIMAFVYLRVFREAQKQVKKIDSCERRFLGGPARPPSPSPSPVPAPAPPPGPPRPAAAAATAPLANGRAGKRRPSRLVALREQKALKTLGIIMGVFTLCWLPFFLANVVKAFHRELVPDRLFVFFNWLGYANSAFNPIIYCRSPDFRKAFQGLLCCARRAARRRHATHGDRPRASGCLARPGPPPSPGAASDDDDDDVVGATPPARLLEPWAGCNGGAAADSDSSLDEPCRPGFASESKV

[4] = test system: normal male cynomolgus monkeys; assay: Intraocular pressure test, twice daily repeated instillation (Test 5); format: in vivo, cynomolgus monkey; conditions: 0.01% and 0.1% ophthalmic solutions, twice daily repeatedly, Day 1, 7, 14; FIG. 4
Protocol: Specifically, one drop of 0.4% oxybuprocaine hydrochloride ophthalmic solution (trade name: Benoxil (registered trademark) ophthalmic solution 0.4%) was instilled to the right eye so as to provide surface anesthesia, and then the intraocular pressure was measured three times with Mentor tonometer (applanation), followed by calculation of the average. (N=6 eyes)

[5] = 0.001% ophthalmic solution, 8 hours
[6] = 0.01% ophthalmic solution, 8 hours
[7] = 0.1% ophthalmic solution, 8 hours
[8] = 1% ophthalmic solution, 8 hours

Row | SMILES | secretion of tears and tear proteins [1] | Incremental difference in Schirmer's test at 0.5 hours after ocular instillation ([2]; 0.001% ophthalmic solution) | Incremental difference in Schirmer's test at 8 hours after ocular instillation [2, 5] | Incremental difference in Schirmer's test at 0.5 hours after ocular instillation ([2]; 0.01% ophthalmic solution) | Incremental difference in Schirmer's test at 8 hours after ocular instillation [2, 6] | Incremental difference in Schirmer's test at 0.5 hours after ocular instillation ([2]; 0.1% ophthalmic solution) | Incremental difference in Schirmer's test at 8 hours after ocular instillation [2, 7] | Incremental difference in Schirmer's test at 0.5 hours after ocular instillation ([2]; 1% ophthalmic solution) | Incremental difference in Schirmer's test at 8 hours after ocular instillation [2, 8] | extension of TBUT [3] | also measured
1 | CC(Cc1ccc(O)cc1)NCC(O)c1cc(O)cc(O)c1 (stereo not shown) [fenoterol] | confirmed to enhance | 1.8 mm/min | 0.0 mm/min | 4.8 mm/min | 0.2 mm/min | 6.1 mm/min | 0.9 mm/min | 3.6 mm/min | 1.1 mm/min | not confirmed | –
2 | CC(C)(C)NCC(O)c1ccc(O)c(CO)c1 (stereo not shown) [salbutamol] | – | – | – | – | – | – | – | – | – | – | lacrimal secretion ([1]; Patent Literature 2): confirmed to enhance lacrimal secretion; effects on the treatment of dry eye ([1]; Patent Literature 3): did not have sufficient effects
3 | CC(C)(C)NCC(O)c1cc(Cl)c(N)c(Cl)c1 (stereo not shown) [clenbuterol] | confirmed to enhance | 2.0 mm/min | 0.3 mm/min | 2.7 mm/min | 1.1 mm/min | 3.6 mm/min | 2.4 mm/min | 3.0 mm/min | 3.9 mm/min | not confirmed | –
4 | COc1ccc(CC(C)(C)NC[C@H](O)c2cc(O)cc3c2OCC(=O)N3)cc1 [olodaterol, 6-hydroxy-8-((1R)-1-hydroxy-2-{[2-(4-methoxyphenyl)-1,1-dimethylethyl]amino}-ethyl)-2H-1,4-benzoxazin-3-(4H)-one] | – | 7.2 mm/min | 2.1 mm/min | 6.9 mm/min | 2.8 mm/min | – | – | – | – | – | intrinsic activity against β1 adrenergic receptors (β1 adrenergic receptors): weak intrinsic activity; Incremental difference in Schirmer's test at 0.5 hours after ocular instillation ([2]; 0.00001% ophthalmic solution): 2.8 mm/min; Incremental difference in Schirmer's test at 8 hours after ocular instillation ([2]; 0.00001% ophthalmic solution, 8 hours): 0.4 mm/min; Incremental difference in Schirmer's test at 0.5 hours after ocular instillation ([2]; 0.0001% ophthalmic solution): 6.0 mm/min; Incremental difference in Schirmer's test at 8 hours after ocular instillation ([2]; 0.0001% ophthalmic solution, 8 hours): 1.7 mm/min; lacrimal secretion at 8 hours after ocular instillation ([2]; 0.0001 to 0.01% instilled groups, 8 hours, FIG. 3): highly enhanced; increase of tear volumes at 16 hours after ocular instillation ([2]; 0.001 and 0.01% instilled groups, 16 hours, FIG. 3): increase of tear volumes was observed; lacrimal secretion ([2]; olodaterol-instilled groups 0.00001 to 0.01%, FIG. 3): enhanced; intraocular pressure [4]: did not show increase and/or decrease; effect of stabilizing tear film ([3]; low concentration of 0.0001%, FIG. 1): confirmed to show the effect of stabilizing tear film; TBUT-extending effect ([3]; single ocular instillation 0.0001, 0.001, 0.01% (w/v), 20 μL/eye, 15, 30, 60 minutes, FIG. 1): confirmed in a concentration-dependent manner

From patent US12678443B2, “Medicament for preventing and/or treating dry eye” (Santen Pharmaceutical Co., Ltd., priority 2021, dated 2026)
